In general, half-life refers to how long it takes for the measured level to halve. Low readings indicate fast loss, high ones slow loss.

This data set can be described thus: Stability in simulated intestinal fluid. In kind it is physicochemical.

`CC[C@H]1OC(=O)[C@H](C)[C@@H](O[C@H]2C[C@@](C)(OC)[C@@H](O)[C@H](C)O2)[C@H](C)[C@@H](O[C@@H]2O[C@H](C)C[C@H](N(C)C)[C@H]2O)[C@](C)(O)C[C@@H](C)C(=O)[C@H](C)[C@@H](O)[C@]1(C)O` [erythromycin] came in with a half-life of 7.97 h.

The record behind these values is publication PMC10794885 (RSC Advances, 2024).
